Results: publication PMC9841523 (Journal of Medicinal Chemistry, 2022)

Legend:
tumor p4EBP1 = assay: Tumor PD after a single dose in the MCF-7 CDX model; format: in vivo, mice; details: for effect on tumor p4EBP1 levels: MCF-7 CDX, single dose (38, 40 ip; everolimus 5 mg/kg oral); for MCF-7 tumor PD: dose proportional duration of >80% p4EBP1 inhibition: single ip dose
CK1g1 = target: T1, CK1g1 (Homo sapiens, UniProt Q9HCP0); assay: KiNativ kinase panel; format: cell-based; details: 1 μM, MCF-7 Cells, Lys2
T1 construct: endogenous in cells; host or cells: MCF7
T1 sequence (Q9HCP0 whole entry): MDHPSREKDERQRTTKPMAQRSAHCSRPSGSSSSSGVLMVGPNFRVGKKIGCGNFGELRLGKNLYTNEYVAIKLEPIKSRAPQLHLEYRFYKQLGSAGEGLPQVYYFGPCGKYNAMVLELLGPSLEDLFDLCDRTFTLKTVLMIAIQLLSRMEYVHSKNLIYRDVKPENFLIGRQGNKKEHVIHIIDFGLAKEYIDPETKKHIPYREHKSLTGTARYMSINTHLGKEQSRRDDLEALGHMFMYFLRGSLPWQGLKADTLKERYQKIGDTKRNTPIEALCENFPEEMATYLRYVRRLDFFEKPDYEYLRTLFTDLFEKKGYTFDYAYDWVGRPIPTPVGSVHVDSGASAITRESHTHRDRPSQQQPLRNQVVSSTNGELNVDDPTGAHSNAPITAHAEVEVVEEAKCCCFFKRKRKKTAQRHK

CK1g1, CK1g2, CK1g3 = assay: KiNativ kinase panel; format: cell-based, human; details: 1 μM, MCF-7 Cells, ATP Loop
CSK = target: T2, CSK (Homo sapiens, UniProt P41240); assay: KiNativ kinase panel; format: cell-based; details: 1 μM, MCF-7 Cells
T2 construct: MCF7 cells were exposed to; endogenous in cells; host or cells: MCF7
T2 sequence (P41240 whole entry): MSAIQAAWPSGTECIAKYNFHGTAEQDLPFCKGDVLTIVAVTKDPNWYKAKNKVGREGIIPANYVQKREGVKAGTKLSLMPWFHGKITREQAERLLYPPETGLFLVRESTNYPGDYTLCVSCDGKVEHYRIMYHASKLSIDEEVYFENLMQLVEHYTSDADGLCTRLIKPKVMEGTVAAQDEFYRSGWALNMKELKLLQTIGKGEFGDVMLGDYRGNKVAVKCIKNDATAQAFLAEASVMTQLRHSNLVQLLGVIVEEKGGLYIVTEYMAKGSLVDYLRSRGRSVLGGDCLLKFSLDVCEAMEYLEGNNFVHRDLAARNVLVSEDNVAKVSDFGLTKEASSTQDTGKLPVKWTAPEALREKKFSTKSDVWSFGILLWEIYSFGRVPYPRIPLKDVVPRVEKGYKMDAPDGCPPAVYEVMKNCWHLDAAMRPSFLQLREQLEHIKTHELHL

IRAK4 = target: T3, IRAK4 (Homo sapiens, UniProt Q9NWZ3); assay: KiNativ kinase panel; format: cell-based; details: 1 μM, MCF-7 Cells
T3 construct: MCF7 cells were exposed to; endogenous in cells; host or cells: MCF7
T3 sequence (Q9NWZ3 1-460): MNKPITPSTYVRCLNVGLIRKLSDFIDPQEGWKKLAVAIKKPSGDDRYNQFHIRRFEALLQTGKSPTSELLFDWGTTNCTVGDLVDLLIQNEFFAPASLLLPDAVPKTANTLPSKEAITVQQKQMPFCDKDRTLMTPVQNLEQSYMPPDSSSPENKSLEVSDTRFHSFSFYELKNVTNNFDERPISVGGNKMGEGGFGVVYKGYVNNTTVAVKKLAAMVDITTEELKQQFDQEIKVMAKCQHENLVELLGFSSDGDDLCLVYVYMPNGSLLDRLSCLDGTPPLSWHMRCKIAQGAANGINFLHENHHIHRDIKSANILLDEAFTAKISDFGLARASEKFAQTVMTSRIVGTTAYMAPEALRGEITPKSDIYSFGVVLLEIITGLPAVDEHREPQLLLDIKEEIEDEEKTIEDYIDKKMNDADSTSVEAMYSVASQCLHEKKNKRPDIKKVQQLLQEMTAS

LATS2 = target: T4, LATS2 (Homo sapiens, UniProt Q9NRM7); assay: KiNativ kinase panel; format: cell-based; details: 1 μM, MCF-7 Cells
T4 construct: endogenous in cells; host or cells: MCF7
T4 sequence (Q9NRM7 1-1088): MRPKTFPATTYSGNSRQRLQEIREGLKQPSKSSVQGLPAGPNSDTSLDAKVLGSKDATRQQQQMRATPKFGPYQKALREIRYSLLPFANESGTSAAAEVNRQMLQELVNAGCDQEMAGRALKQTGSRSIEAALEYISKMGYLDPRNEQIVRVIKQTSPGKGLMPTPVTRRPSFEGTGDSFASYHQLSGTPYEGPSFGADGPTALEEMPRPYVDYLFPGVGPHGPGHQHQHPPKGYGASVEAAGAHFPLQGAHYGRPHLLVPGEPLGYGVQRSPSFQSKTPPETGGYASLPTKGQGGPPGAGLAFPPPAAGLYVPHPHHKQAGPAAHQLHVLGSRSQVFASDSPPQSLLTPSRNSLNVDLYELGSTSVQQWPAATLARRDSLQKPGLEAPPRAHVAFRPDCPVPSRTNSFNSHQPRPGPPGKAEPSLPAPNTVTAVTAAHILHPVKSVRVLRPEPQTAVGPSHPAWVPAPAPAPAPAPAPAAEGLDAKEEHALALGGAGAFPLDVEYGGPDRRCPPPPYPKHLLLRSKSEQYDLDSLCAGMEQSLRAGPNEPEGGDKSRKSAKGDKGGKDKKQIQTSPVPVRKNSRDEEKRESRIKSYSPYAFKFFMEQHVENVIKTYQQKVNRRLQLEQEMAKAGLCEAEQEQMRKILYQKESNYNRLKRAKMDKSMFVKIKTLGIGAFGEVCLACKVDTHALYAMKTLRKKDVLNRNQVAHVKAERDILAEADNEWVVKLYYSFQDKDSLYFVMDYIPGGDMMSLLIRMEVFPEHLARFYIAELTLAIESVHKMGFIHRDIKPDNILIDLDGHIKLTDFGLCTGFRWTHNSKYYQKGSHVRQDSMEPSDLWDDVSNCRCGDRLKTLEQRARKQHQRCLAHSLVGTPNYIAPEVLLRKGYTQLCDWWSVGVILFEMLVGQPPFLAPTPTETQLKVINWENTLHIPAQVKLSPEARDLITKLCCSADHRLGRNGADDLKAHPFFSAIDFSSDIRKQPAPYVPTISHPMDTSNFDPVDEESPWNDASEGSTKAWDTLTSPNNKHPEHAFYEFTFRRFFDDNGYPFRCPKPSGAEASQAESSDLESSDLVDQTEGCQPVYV

MARK3, MARK4 = assay: KiNativ kinase panel; format: cell-based, human; details: 1 μM; MCF-7 Cells; Lys1; EVAIKIIDK
MLK3 = target: T5, MLK3 (Homo sapiens, UniProt Q16584); assay: KiNativ kinase panel; format: cell-based; details: 1 μM; MCF-7 Cells; Lys2; DLKSNNILLLQPIESDDMEHK
T5 construct: purchased ActivX Biosciences (KiNativ)
T5 sequence (Q16584 whole entry): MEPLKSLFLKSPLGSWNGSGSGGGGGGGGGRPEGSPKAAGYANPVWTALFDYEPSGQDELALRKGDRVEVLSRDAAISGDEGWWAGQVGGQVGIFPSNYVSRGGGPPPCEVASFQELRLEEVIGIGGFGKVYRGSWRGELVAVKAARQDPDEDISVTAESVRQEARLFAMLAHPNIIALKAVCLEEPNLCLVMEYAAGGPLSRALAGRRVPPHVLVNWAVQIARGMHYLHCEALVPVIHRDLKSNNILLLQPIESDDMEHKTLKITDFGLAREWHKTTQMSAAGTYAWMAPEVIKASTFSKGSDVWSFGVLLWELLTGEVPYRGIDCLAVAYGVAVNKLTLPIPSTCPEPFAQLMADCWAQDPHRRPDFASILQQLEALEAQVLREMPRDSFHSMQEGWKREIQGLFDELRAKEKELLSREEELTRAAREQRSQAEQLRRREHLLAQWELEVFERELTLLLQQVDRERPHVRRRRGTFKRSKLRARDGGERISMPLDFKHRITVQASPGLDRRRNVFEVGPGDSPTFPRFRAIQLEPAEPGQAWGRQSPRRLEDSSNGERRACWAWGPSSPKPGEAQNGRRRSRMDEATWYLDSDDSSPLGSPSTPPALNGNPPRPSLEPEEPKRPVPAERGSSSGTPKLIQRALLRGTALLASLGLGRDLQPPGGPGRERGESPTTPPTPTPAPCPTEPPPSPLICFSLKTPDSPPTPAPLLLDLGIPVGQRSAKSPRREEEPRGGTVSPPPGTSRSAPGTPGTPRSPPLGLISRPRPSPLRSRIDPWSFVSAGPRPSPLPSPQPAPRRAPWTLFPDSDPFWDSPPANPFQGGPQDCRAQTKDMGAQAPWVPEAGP

MST1 = target: T6, MST1 (Homo sapiens, UniProt Q13043); assay: KiNativ kinase panel; format: cell-based; details: 1 μM; MCF-7 Cells; Lys1; ETGQIVAIKQVPVESDLQEIIK
T6 construct: purchased ActivX Biosciences (KiNativ)
T6 sequence (Q13043 whole entry): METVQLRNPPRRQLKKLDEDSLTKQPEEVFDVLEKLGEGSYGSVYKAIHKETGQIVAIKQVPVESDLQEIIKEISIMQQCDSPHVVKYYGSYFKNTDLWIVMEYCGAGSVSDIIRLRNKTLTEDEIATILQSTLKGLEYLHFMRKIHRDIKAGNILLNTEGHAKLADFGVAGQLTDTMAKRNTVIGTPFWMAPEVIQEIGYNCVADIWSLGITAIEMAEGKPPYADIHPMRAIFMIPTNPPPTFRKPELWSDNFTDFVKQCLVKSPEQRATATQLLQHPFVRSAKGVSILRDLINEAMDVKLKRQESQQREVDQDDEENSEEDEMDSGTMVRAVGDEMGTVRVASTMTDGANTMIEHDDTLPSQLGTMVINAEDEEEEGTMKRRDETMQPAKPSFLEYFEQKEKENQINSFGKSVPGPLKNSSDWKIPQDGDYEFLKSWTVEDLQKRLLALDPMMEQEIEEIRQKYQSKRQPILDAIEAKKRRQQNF

MST1, MST2 = assay: KiNativ kinase panel; format: cell-based, human; details: 1 μM, MCF-7 Cells, Lys2
NDR1, NDR2 = assay: KiNativ kinase panel; format: cell-based, human; details: 1 μM; MCF-7 Cells; Activation Loop; LSDFGLCTGLKK
PCTAIRE1, PCTAIRE3 = assay: KiNativ kinase panel; format: cell-based, human; details: 1 μM, MCF-7 Cells, Lys2
PI4KA, PI4KAP2 = assay: KiNativ kinase panel; format: cell-based, human; details: 1 μM, MCF-7 Cells, ATP
Wnk1, Wnk2 = assay: KiNativ kinase panel; format: cell-based, human; details: 1 μM; MCF-7 Cells; ATP Loop; GSFKTVYK
hERG ion channel = hERG ion channel (Homo sapiens, UniProt Q12809); assay: in vitro hERG inhibition; details: for inhibition of the hERG ion channel: 10 µM
Chain of hERG ion channel (Q12809 whole entry): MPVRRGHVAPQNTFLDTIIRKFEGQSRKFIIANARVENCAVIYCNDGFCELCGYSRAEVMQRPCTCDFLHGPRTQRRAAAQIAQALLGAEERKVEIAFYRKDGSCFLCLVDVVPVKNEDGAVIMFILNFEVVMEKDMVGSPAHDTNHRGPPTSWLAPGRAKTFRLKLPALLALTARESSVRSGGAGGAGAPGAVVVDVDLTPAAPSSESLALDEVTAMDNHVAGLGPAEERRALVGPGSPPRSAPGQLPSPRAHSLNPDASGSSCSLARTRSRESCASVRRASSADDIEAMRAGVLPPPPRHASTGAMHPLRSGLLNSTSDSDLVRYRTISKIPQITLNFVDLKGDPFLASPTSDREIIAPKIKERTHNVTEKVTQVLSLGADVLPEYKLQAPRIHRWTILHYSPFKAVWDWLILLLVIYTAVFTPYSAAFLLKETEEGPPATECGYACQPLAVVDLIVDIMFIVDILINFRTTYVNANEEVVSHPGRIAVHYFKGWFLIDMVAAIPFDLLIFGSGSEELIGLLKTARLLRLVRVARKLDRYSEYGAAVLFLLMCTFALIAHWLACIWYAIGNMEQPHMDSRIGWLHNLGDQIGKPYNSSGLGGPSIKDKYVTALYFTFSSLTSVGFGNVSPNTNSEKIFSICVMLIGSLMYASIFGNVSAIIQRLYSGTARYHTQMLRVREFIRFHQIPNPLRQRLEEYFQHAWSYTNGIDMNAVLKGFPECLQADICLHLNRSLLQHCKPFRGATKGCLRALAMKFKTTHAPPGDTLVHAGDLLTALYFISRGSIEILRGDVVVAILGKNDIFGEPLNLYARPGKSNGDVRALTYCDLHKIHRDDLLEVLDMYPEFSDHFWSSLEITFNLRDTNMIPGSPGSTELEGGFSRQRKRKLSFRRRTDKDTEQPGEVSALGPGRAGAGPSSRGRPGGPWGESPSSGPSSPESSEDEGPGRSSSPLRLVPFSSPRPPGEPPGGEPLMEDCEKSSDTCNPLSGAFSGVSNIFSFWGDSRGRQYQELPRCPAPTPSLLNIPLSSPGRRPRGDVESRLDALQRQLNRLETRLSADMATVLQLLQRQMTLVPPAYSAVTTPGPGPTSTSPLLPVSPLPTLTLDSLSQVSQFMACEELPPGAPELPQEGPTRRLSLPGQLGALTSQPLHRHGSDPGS

[1] = tested on: MCF-7 (PIK3CA^E545K) cell line-derived xenograft; assay: 28-day study in the MCF-7 CDX model; details: for tumor volume: MCF-7 CDX, once weekly ip, 28-day study, most significant at 3 or 10 mg/kg; for tolerability (body weight): up to 10 mg/kg ip once weekly
Protocol: Formulation containing transcutol/solutol HS15/H 2O (5/5/90, %w/w/v) was used, with a dose volume at 5 mL/kg.
Methods for xenograft studies.
MCF-7 xenograft studies. Female Balb/c nude mice (Shanghai Lingchang Biotechnology), 6–8 weeks of age, were inoculated subcutaneously in the right flank with MCF-7 (ECACC-
Three days prior to inoculation, mice were fed with drinking water containing β-estradiol (40 μg/mL). When mean tumor volume reached between 200–400 mm 3, mice were randomized into treatment groups (n = 12/group) for efficacy study, and tumor volume was measured twice weekly by caliper measurements for the duration of the study.
compounds were administered by ip injections at indicated doses, once weekly.

[2] = Activation Loop, VSDFGLTKEASSTQDTGKLPVK

SMILES | effect on tumor p4EBP1 levels (tumor p4EBP1) | MCF-7 tumor PD: dose proportional duration of >80% p4EBP1 inhibition (tumor p4EBP1) | KiNativ Kinase Panel Data (CSK; [2]) | KiNativ Kinase Panel Data (CSK; Lys1, VAVKCIK) | KiNativ Kinase Panel Data (IRAK4; Lys1, GYVNNTTVAVKK) | KiNativ Kinase Panel Data (IRAK4; Lys2, DIKSANILLDEAFTAK) | KiNativ Kinase Panel Data (LATS2; Lys2, DIKPDNILIDLDGHIK) | KiNativ Kinase Panel Data (MARK3, MARK4) | KiNativ Kinase Panel Data (MLK3) | KiNativ Kinase Panel Data (MST1) | KiNativ Kinase Panel Data (NDR1, NDR2) | KiNativ Kinase Panel Data (Wnk1, Wnk2) | in vitro hERG inhibition (10 μM) (hERG ion channel) | inhibition of the hERG ion channel (hERG ion channel) | tumor volume [1] | tolerability (body weight) [1] | other results
CO[C@H]1C[C@@H]2CC[C@@H](C)[C@@](O)(O2)C(=O)C(=O)N2CCCC[C@H]2C(=O)O[C@H]([C@H](C)C[C@@H]2CC[C@@H](OC(=O)NCCOCCOCCOCCOCCOCCOCCOCCOCCC(=O)N3CCc4cc(Cn5nc(-c6ccc7oc(N)nc7c6)c6c(N)ncnc65)ccc4C3)[C@H](OC)C2)C[C@@H](O)[C@H](C)/C=C(\C)[C@@H](O)[C@@H](OC)C(=O)[C@H](C)C[C@H](C)/C=C/C=C/C=C/1C [compound 38] | dose-dependent, prolonged, and profound inhibition | 24 to 48 h | 1.9 | 13.6 | -7.0 | -19.3 | 22.9 | 7.2 | 2.0 | 10.7 | 25.0 | 13.6 | 16% | low | reduction in tumor volume | acceptable tolerability profile | KiNativ Kinase Panel Data (CK1g1; […]): 4.7; KiNativ Kinase Panel Data (CK1g1, CK1g2, CK1g3; […]): 8.9; KiNativ Kinase Panel Data (LATS2; Lys1, […]): -20.5; KiNativ Kinase Panel Data (MST1, MST2; […]): 3.0; KiNativ Kinase Panel Data (PCTAIRE1, PCTAIRE3; […]): 13.9; KiNativ Kinase Panel Data (PI4KA, PI4KAP2; […]): -38.9
CO[C@H]1C[C@@H]2CC[C@@H](C)[C@@](O)(O2)C(=O)C(=O)N2CCCC[C@H]2C(=O)O[C@H]([C@H](C)C[C@@H]2CC[C@@H](OC(=O)NCCOCCOCCOCCOCCOCCOCCOCCOCCC(=O)NCCS(=O)(=O)c3ccc(C(=O)N4CCOc5ccc(-c6ccc(N)nc6)cc5C4)c(C)c3F)[C@H](OC)C2)C[C@@H](O)[C@H](C)/C=C(\C)[C@@H](O)[C@@H](OC)C(=O)[C@H](C)C[C@H](C)/C=C/C=C/C=C/1C [compound 40] | dose-dependent, robust, and long-lasting inhibition | 24 to 48 h | 5.5 | 17.7 | -35.0 | -35.4 | -1.4 | 13.2 | -12.3 | 18.2 | -18.5 | -3.7 | 6% | low | reduction in tumor volume | acceptable tolerability profile | KiNativ Kinase Panel Data (CK1g1; DVKPENFLIGR): 1.3; KiNativ Kinase Panel Data (CK1g1, CK1g2, CK1g3; KIGCGNFGELR): -7.8; KiNativ Kinase Panel Data (LATS2; Lys1, VDTHALYAMKTLR): -0.8; KiNativ Kinase Panel Data (MST1, MST2; DIKAGNILLNTEGHAK): -6.5; KiNativ Kinase Panel Data (PCTAIRE1, PCTAIRE3; DLKPQNLLINER): -31.2; KiNativ Kinase Panel Data (PI4KA, PI4KAP2; SGTPMQSAAKAPYLAK): -5.7
